Source: US9884043B2, “RORgammaT inhibitors” (Merck Sharp & Dohme Corp., priority 2011, dated 2018)

What was measured:
6His(GST)RORgamma-LBD = molecular target: T1, 6His(GST)RORgamma-LBD (Homo sapiens, UniProt P51449); assay: TR-FRET assay (Protocol A), RORgamma-LBD / SRC1_2 co-activator peptide interaction; type: biochemical; settings: SRC1_2 peptide 0.1 μM, RORgamma-LBD 10 nM, overnight incubation at 4° C.
T1 construct: the applied RORgamma-LBD contains a 6-His and GST tag; GST (N); made in house; host or cells: baculovirus-infected Sf-21 insect cells
T1 sequence (P51449 269-508 limits assumed): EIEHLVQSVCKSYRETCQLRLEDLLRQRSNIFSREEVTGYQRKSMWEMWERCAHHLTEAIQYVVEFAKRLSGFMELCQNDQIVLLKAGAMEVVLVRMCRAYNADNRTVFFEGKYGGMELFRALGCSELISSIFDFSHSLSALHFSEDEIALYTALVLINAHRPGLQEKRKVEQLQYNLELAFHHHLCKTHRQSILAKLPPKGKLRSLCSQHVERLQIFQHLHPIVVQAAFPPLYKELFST
Text: Activation of RORgammaT activity can be measured using e.g. biochemical TR-FRET assay. In such an assay, interaction of cofactor-derived peptides with human RORgammaT-Ligand Binding Domain (LBD) can be measured.
To identify novel antagonists of RORgammaT, an assay was developed which employs the interaction of RORgammaT with its co-activator peptide SRC1_2. […] The assay was run following three slightly different protocols, i.e. Protocol A, Protocol B, and Protocol C, which are described below.
TR-FRET Assay (Protocol A)
The 6His(GST)RORgamma-LBD was expressed and purified from baculovirus infected Sf-21 insect cells (Bac-to-BAC, Invitrogen) and purified using glutathione sepharose chromatography (GE healthcare). Biotin and His function as anchoring points for streptavidin-allophycocyanin (Strep-APC, Perkin Elmer, C130-100) and anti-His-Europium Cryptate (Perkin Elmer, AD0111), respectively. Since energy transfer between the streptavidin and His-coupled labels APC and europium cryptate can only take place when these labels are in close proximity, measurement of energy transfer in a mixture of biotinylated peptide, His-GR-LBD, streptavidin-APC and anti-His-Europium Cryptate will be indicative for RORy-LBD/peptide binding. […] Changes in peptide binding caused by dose-curves of compounds added to the reaction mixture (DMSO concentration 0.1%), can likewise be monitored.

HIS-tagged RORγ-LBD = molecular target: T2, HIS-tagged RORγ-LBD (Homo sapiens, UniProt P51449); assay: TR-FRET assay (Protocol C), purified RORγ-LBD / biotinylated SRC1 LXXLL peptide; type: biochemical; settings: purified RORγ-LBD 3 nM, SRC1 peptide 100 nM, overnight at 4° C.
T2 construct: HIS-tagged RORγ-LBD was recombinantly expressed in SF9 cells using a baculovirus expression system; made in house; host or cells: SF9 cells, baculovirus; crude lysate used
T2 sequence (P51449 269-508 limits assumed): T1 sequence (P51449 269-508 limits assumed)
Text: Activation of RORgammaT activity can be measured using e.g. biochemical TR-FRET assay. In such an assay, interaction of cofactor-derived peptides with human RORgammaT-Ligand Binding Domain (LBD) can be measured. The TR-FRET technique is a sensitive biochemical proximity assay that will give information concerning the interaction of a ligand with the LBD, in the presence of cofactor derived peptides (Zhou et al., Methods 25:54-61, 2001).
To identify novel antagonists of RORgammaT, an assay was developed which employs the interaction of RORgammaT with its co-activator peptide SRC1_2. This peptide mimics the recruitment of co-activators to RORgammaT through its interaction with the LXXLL (SEQ ID NO:2) (eg NR box) motifs (Xie et al., J. Immunol. 175: 3800-09, 2005; Kurebayashi et al., Biochem. Biophys. Res. Commun. 315: 919-27, 2004; Jin et al., Mol. Endocrinology 24:923-29, 2010). The assay was run following three slightly different protocols, i.e. Protocol A, Protocol B, and Protocol C, which are described below.
TR-Fret Assay (Protocol C)
HIS-tagged RORγ-LBD protein was expressed in SF9 cells using a baculovirus expression system. The RORγ-LBD protein was purified by glutathione sepharose chromatography. Separately, SF9 cells not expressing any recombinant protein were lysed and the lysate was added to the purified RORγ-LBD at 0.25 μl lysate (from 10,000 SF9 cells)/nM purified protein. The mixture was then diluted in assay buffer (50 mM Tris pH 7.0, 50 mM KCl, 1 mM EDTA, 0.1 mM DTT) to obtain RORγ-LBD final concentration of 3 nM in 384-well assay plate.
Compounds to be tested were injected to the assay plate using Acoustic Droplet Ejection technology by Echo 550 liquid handler (Labcyte, Calif.). A stock of biotinylated-LXXLL (SEQ ID NO:2) peptide from coactivator SRC1 (Biotin-[…]) (SEQ ID NO: 1) was prepared in assay buffer and added to each well (100 nM final concentration). A solution of Europium tagged anti-HIS antibody (1.25 nM final concentration) and APC conjugated streptavidin (8 nM final concentration) were also added to each well.
The final assay mixture was incubated for overnight at 4° C., and the fluorescence signal was measured on an Envision plate reader: (Excitation filter=340 nm; APC emission=665 nm; Europium emission=615 nm; dichroic mirror=D400/D630; delay time=100 μs, integration time=200 μs). IC50 values for test compounds were calculated from the quotient of the fluorescence signal at 665 nm divided by the fluorescence signal at 615 nm.

Row | SMILES | EC50 (6His(GST)RORgamma-LBD) | IC50 (HIS-tagged RORγ-LBD)
1 | O=C(O)c1ccc(-c2nn(S(=O)(=O)c3cc(Cl)ccc3Cl)c3ccccc23)cc1 [Example 13C, 4-(1-(2,5-dichlorophenylsulfonyl)-1H-indazol-3-yl)benzoic acid] | 75.9 nM | –
2 | Cc1c(Cl)cccc1S(=O)(=O)n1nc(-c2ccc(C(=O)O)cc2)c2ccccc21 [Example 13D, 4-(1-(3-chloro-2-methylphenylsulfonyl)-1H-indazol-3-yl)benzoic acid] | 52.5 nM | –
3 | O=C(O)c1ccc(-c2nn(S(=O)(=O)c3cccc(Cl)c3Cl)c3ccccc23)cc1 [Example 13E, 4-(1-(2,3-dichlorophenylsulfonyl)-1H-indazol-3-yl)benzoic acid] | 26.3 nM | –
4 | O=C(O)c1ccc(-c2nn(S(=O)(=O)c3ccc(Cl)c(Cl)c3Cl)c3ccccc23)cc1 [Example 13F, 4-(1-(2,3,4-trichlorophenylsulfonyl)-1H-indazol-3-yl)benzoic acid] | 166 nM | –
5 | N#Cc1ccccc1S(=O)(=O)n1nc(-c2ccc(C(=O)O)cc2)c2ccccc21 [Example 14, 4-(1-(2-cyanophenylsulfonyl)-1H-indazol-3-yl)benzoic acid] | 1950 nM | –
6 | O=C(O)c1ccc(-c2nn(S(=O)(=O)c3ccccc3OC(F)(F)F)c3ccccc23)cc1 [Example 15A, 4-(1-(2-(trifluoromethoxy)phenylsulfonyl)-1H-indazol-3-yl)benzoic acid] | 275 nM | –
7 | O=C(O)c1ccc(-c2nn(S(=O)(=O)c3cccc4ccccc34)c3ccccc23)cc1 [Example 15B, 4-(1-(naphthalen-1-ylsulfonyl)-1H-indazol-3-yl)benzoic acid] | 182 nM | –
8 | O=C(O)c1ccc(-c2nn(S(=O)(=O)c3cccc4nonc34)c3ccccc23)cc1 [Example 15D, 4-(1-(benzo[c][1,2,5]oxadiazol-4-ylsulfonyl)-1H-indazol-3-yl)benzoic acid] | 4470 nM | –
9 | Cc1ccc(C#N)c(S(=O)(=O)n2nc(-c3ccc(C(=O)O)cc3)c3ccccc32)c1 [Example 15E, 4-(1-(2-cyano-5-methylphenylsulfonyl)-1H-indazol-3-yl)benzoic acid] | 513 nM | –
10 | O=C(O)c1ccc(-c2nn(S(=O)(=O)c3ccccc3Cl)c3ccncc23)cc1 [Example 16, 4-(1-(2-chlorophenylsulfonyl)-1H-pyrazolo[4,3-c]pyridin-3-yl)benzoic acid] | 955 nM | –
11 | Cc1cc(C)cc(S(=O)(=O)n2nc(-c3ccc(C(=O)O)cc3F)c3ccccc32)c1 [Example 17, 4-(1-(3,5-dimethylphenylsulfonyl)-1H-indazol-3-yl)-3-fluorobenzoic acid] | 1230 nM | –
12 | Cc1cc(C)cc(S(=O)(=O)n2nc(-c3ccc(C(=O)O)c(C(F)(F)F)c3)c3ccccc32)c1 [Example 18, 4-(1-(3,5-dimethylphenylsulfonyl)-1H-indazol-3-yl)-2-(trifluoromethyl)benzoic acid] | 3310 nM | –
13 | O=S(=O)(c1cccc(Cl)c1)n1nc(-c2ccc(-c3nnn[nH]3)cc2)c2ccccc21 [Example 20, 3-(4-(1H-tetrazol-5-yl)phenyl)-1-(3-chlorophenylsulfonyl)-1H-indazole] | 3550 nM | –
14 | COC(=O)c1sccc1S(=O)(=O)n1nc(-c2ccc(-c3nnn[nH]3)cc2)c2ccccc21 [Example 21A, methyl 3-(3-(4-(1H-tetrazol-5-yl)phenyl)-1H-indazol-1-ylsulfonyl)thiophene-2-carboxylate] | 389 nM | –
15 | O=S(=O)(c1ccc(F)cc1Br)n1nc(-c2ccc(-c3nnn[nH]3)cc2)c2ccccc21 [Example 21B, 3-(4-(1H-tetrazol-5-yl)phenyl)-1-(2-bromo-4-fluorophenylsulfonyl)-1H-indazole] | 575 nM | –
16 | O=S(=O)(c1sc(Cl)cc1Br)n1nc(-c2ccc(-c3nnn[nH]3)cc2)c2ccccc21 [Example 21C, 3-(4-(1H-tetrazol-5-yl)phenyl)-1-(3-bromo-5-chlorothiophen-2-ylsulfonyl)-1H-indazole] | 617 nM | –
17 | Cc1noc(C)c1S(=O)(=O)n1nc(-c2ccc(-c3nnn[nH]3)cc2)c2ccccc21 [Example 21D, 4-(3-(4-(1H-tetrazol-5-yl)phenyl)-1H-indazol-1-ylsulfonyl)-3,5-dimethylisoxazole] | 741 nM | –
18 | O=C(c1c(Cl)cccc1Cl)n1nc(-c2ccc(-c3nnn[nH]3)cc2)c2ccccc21 [Example 22, (3-(4-(1H-tetrazol-5-yl)phenyl)-1H-indazol-1-yl)(2,6-dichlorophenyl)methanone] | 5010 nM | –
19 | O=C(c1cccc(Cl)c1Cl)n1nc(-c2ccc(-c3nnn[nH]3)cc2)c2ccccc21 [Example 23, (3-(4-(1H-tetrazol-5-yl)phenyl)-1H-indazol-1-yl)(2,3-dichlorophenyl)methanone] | 1020 nM | –
20 | O=C(O)c1cc(-c2nn(C(=O)c3c(Cl)cccc3C(F)(F)F)c3cccnc23)ccc1O [Example 24AL, 5-(1-(2-chloro-6-(trifluoromethyl)-benzoyl)-1H-pyrazolo[4,3-b]pyridin-3-yl)-2-hydroxybenzoic acid] | – | > 10000 nM
21 | O=C(O)c1ccc(-c2nn(C(=O)c3c(Cl)cccc3C(F)(F)F)c3ccccc23)c(Cl)c1 [Example 24AS, 3-chloro-4-(1-(2-chloro-6-(trifluoromethyl)-benzoyl)-1H-indazol-3-yl)benzoic acid] | – | < 50 nM
22 | COc1cccc(F)c1C(=O)n1nc(-c2ccc(C(=O)O)cc2F)c2ccccc21 [Example 24AU, sodium 3-fluoro-4-(1-(2-fluoro-6-methoxybenzoyl)-1H-indazol-3-yl)benzoate] | – | < 50 nM
23 | COc1cccc(F)c1C(=O)n1nc(-c2ccc(C(=O)O)cc2)c2cccc(F)c21 [Example 24AV, 4-(7-fluoro-1-(2-fluoro-6-methoxybenzoyl)-1H-indazol-3-yl)benzoic acid] | – | 50 to 500 nM
24 | COc1cccc(F)c1C(=O)n1nc(-c2ccc(C(=O)O)cc2F)c2cccc(F)c21 [Example 24AW, 3-fluoro-4-(7-fluoro-1-(2-fluoro-6-methoxybenzoyl)-1H-indazol-3-yl)benzoic acid] | – | 50 to 500 nM
25 | COCc1ccc2c(-c3ccc(C(=O)O)cc3)nn(C(=O)c3c(Cl)cccc3C(F)(F)F)c2c1 [Example 24BG, 4-(1-(2-chloro-6-(trifluoromethyl)-benzoyl)-6-(methoxymethyl)-1H-indazol-3-yl)benzoic acid] | – | 50 to 500 nM
26 | COCCCNC(=O)c1ccc2c(-c3ccc(C(=O)O)cc3F)nn(C(=O)c3c(Cl)cccc3C(F)(F)F)c2c1 [Example 25N, 4-(1-(2-chloro-6-(trifluoromethyl)benzoyl)-6-(3-methoxypropyl-carbamoyl)-1H-indazol-3-yl)-3-fluorobenzoic acid] | – | < 50 nM
27 | COCCN(C)C(=O)c1ccc2c(-c3ccc(C(=O)O)cc3F)nn(C(=O)c3c(Cl)cccc3C(F)(F)F)c2c1 [Example 25S, 4-(1-(2-chloro-6-(trifluoromethyl)benzoyl)-6-((2-methoxyethyl) (methyl)carbamoyl)-1H-indazol-3-yl)-3-fluorobenzoic acid] | – | < 50 nM
